Key:
serotonin reuptake site = serotonin reuptake site (Homo sapiens, UniProt P31645); settings: cited from earlier work
clinical = experiment: clinical; design: species or system human; settings: both sexes, human, in vivo, Mean trough plasma concentration
Method: An open-label, multiple-dose, single-sequence study to evaluate the effect of steady-state carbamazepine XR, 400 mg once daily, a CYP3A4 substrate and inducer, on the pharmacokinetics of steady-state vilazodone 40 mg tablets once daily, with hardness of more than 10 kp and less than 14 kp, preferably about 12 kp as shown in Table 3 (No Tablet Breakage). Vilazodone was co-administered with carbamazepine XR (extended release formulation). Carbamazepine is an antiepileptic drug approved for the treatment of psychomotor and grand mal seizures is metabolized by CYP3A4, and is a CYP3A4 inducer.
All subjects were healthy, nonsmoking male or female volunteers who were 18-45 (Study 2) years of age. Inclusion and exclusion criteria were typical of the criteria used in pharmacokinetic studies in healthy volunteers as known in the art. Inclusion criteria used included agreement to use an effective measure of contraception, body mass index (BMI)>18 and ≦30 kg/m^2 (BMI=18 allowed), normal or clinically non-significant results on physical examination, medical history, serum chemistry, hematology, and urinalysis; negative hepatitis B antigen and C antibody tests, and negative HIV test at screening. Exclusion criteria included clinically significant electrocardiogram results or QT prolongation, clinically significant disease state, history of alcohol abuse, ingestion of food, drink, or drug that may interfere with CYP enzyme activity (e.g., cruciferous vegetables, caffeine, alcohol), known sensitivity to study drug or other drugs from the same class, and use of prohibited concomitant prescription or over-the counter medications.
All volunteers received 4 treatments (A, B, C, and D) in the same, fixed sequence: Treatment A consisted of vilazodone alone on Days 1-9 and was followed by a 14-day washout, Treatment B was carbamazepine XR alone for 19 days (Days 24-42), Treatment C was vilazodone plus carbamazepine XR for 9 days (Days 43-51), and Treatment D was carbamazepine alone for 3 days (Days 52-54). Once-daily doses of study drug were administered in the morning after breakfast; twice-daily doses were administered in the morning after breakfast and 12 hours later in the evening after dinner Study drug was administered within 30 minutes after the end of the corresponding meal.
Blood samples to determine plasma concentrations of vilazodone, M17 (the metabolite of vilazodone), carbamazepine, and carbamazepine-10,11-epoxide (one of the pharmacologically active metabolites of carbamazepine) were collected into tubes pretreated with K2EDTA. For vilazodone and M17 analyses, blood samples (approximately 6 mL) were collected at pre-dose on Days 1, 7, 8, 49, and 50. […] For the analyses of carbamazepine and carbamazepine-10,11-epoxide, blood samples were collected at pre-dose on Days 24, 40, 41, 49 and 50.
Blood samples were centrifuged at no less than 2500 g for 10 minutes at 4° C. within 30 minutes of the sample draw. Plasma was harvested and transferred to polypropylene tubes and flash frozen in a dry ice bath with isopropyl alcohol or methanol. Samples for vilazodone analyses were stored at approximately −70° C. and analyzed. Samples for carbamazepine analyses were stored at −20° C. and analyzed.
Plasma samples were analyzed for vilazodone, M17, carbamazepine and/or carbamazepine-10,11-epoxide concentrations using liquid chromatography coupled with tandem mass spectrometry (LC/MS/MS). For vilazodone and M17, analytes of interest were detected by electrospray ionization mass spectrometry in the negative ion multiple reaction monitoring mode. The assay was linear in the concentration range of 0.5 to 250 ng/mL for vilazodone and 0.25 to 125 ng/mL for M17.
Based on 50 ìL of human plasma with K2EDTA as the anticoagulant, the lower limit of quantification (LLOQ) was 0.5 ng/mL for vilazodone and 0.25 ng/mL for M17. […]

[1] = Hepatic impairment studies: safety assessments (AEs, ECG); type: in vivo, human; settings: for diarrhea, participants: both studies
Method: Safety assessments included vital signs, clinical laboratory evaluations, ECG, and the collection of adverse events (AEs). […] AEs were recorded at all study visits and as they were reported spontaneously by the participants, up to 30 days after the vilazodone dose. Participants were asked about their well-being at each visit.
Safety assessments were summarized without statistical comparisons. The last assessment made before the first dose of study drug was used as a baseline for all subsequent analyses.

[2] = group with severe hepatic impairment
[3] = matched controls, 20 mg single dose

Sequence of serotonin reuptake site (P31645 whole entry): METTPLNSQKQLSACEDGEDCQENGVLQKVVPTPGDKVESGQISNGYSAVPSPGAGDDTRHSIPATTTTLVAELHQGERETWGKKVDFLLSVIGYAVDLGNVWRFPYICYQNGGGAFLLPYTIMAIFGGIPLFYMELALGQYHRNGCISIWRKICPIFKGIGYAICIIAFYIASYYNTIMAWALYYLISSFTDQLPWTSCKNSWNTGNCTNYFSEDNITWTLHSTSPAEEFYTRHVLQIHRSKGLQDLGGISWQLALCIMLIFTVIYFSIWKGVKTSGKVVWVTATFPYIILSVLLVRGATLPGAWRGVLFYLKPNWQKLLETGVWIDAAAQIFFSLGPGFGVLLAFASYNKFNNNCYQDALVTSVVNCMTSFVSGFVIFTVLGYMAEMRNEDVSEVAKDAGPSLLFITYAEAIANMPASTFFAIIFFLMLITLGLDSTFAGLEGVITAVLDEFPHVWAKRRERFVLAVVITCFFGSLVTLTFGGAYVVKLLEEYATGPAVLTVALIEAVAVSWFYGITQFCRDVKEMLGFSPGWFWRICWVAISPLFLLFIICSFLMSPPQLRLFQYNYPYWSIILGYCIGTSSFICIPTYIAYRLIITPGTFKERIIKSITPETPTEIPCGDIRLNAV

## Cl.N#Cc1ccc2[nH]cc(CCCCN3CCN(c4ccc5oc(C(N)=O)cc5c4)CC3)c2c1 [Vilazodone, 1-[4-(5-cyanoindol-3-yl)butyl]-4-(2-carbamoyl-benzofuran-5-yl)-piperazine hydrochloride]
Serotonin reuptake site
  binding affinity to serotonin reuptake site: high affinity
clinical
  concentration at 7 day: 36 ng/mL
  concentration at 8 day: 45.1 ng/mL
  concentration at 9 day: 45.3 ng/mL
[1]; [2]
  decrease in QT interval (mean, screening to end of study): 14.9 ms
  increase in QTcB interval (Bazett formula; mean, screening to end of study): 8.7 ms
[1]; hepatic impairment studies, 20 mg single dose
  deaths, serious AEs, discontinuations due to an AE: No deaths, serious AEs, or discontinuations due to an AE
[1]; [3]
  diarrhea, participants: 5 participants
  vomiting, participants: 0 participants
[1]; participants with hepatic impairment (all severe), 20 mg single dose
  vomiting, participants: 4 participants
[1]; participants with hepatic impairment, 20 mg single dose
  diarrhea, participants: 10 participants
